Each compound was assayed against T1, human μ opiate receptor (Homo sapiens, UniProt P35372) (assay: Affinity for the human μ opiate receptor ([3H]-naloxone displacement, CHO-K1 membrane preparation, SPA)). Settings: compounds prepared via automated synthesis; single measurements at a test concentration of 1 μM.
T1 construct: purchased PerkinElmer Life Sciences, Zaventem, Belgium RB-HOM; host or cells: CHO-K1 cells (recombinant expression)
T1 sequence (P35372 whole entry): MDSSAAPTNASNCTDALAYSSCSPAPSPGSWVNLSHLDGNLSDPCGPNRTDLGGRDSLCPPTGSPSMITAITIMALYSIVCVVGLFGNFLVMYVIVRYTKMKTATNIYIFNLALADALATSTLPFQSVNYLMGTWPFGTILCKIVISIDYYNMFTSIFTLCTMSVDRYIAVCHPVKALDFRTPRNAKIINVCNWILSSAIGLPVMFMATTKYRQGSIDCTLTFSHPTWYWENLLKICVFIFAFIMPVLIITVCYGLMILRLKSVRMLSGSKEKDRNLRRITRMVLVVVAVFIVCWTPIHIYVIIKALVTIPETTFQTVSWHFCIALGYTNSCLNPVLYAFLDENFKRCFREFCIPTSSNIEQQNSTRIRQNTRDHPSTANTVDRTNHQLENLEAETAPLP
Type: binding
Method: The receptor affinity for the human μ opiate receptor is determined in a homogeneous set-up in microtitre plates. For this purpose, dilution series of the substances to be tested are incubated with a receptor membrane preparation (15-40 μg of protein/250 μl of incubation batch) of CHO-K1 cells which express the human μ opiate receptor (RB-HOM receptor membrane preparation from PerkinElmer Life Sciences, Zaventem, Belgium) in the presence of 1 nmol/l of the radioactive ligand [^3H]-naloxone (NET719, PerkinElmer Life Sciences, Zaventem, Belgium) and 1 mg of WGA-SPA-Beads (wheat germ agglutinin SPA beads from Amersham/Pharmacia, Freiburg, Germany) in a total volume of 250 μl for 90 minutes at room temperature. 50 mmol/l of Tris-HCl supplemented with 0.06% of bovine serum albumin are used as the incubation buffer. 100 μmol/l of naloxone are additionally added for determination of the non-specific binding. After the end of the ninety-minute incubation time, the microtitre plates are centrifuged for 20 minutes at 1,000 g and the radioactivity is measured in a β-counter (Microbeta-Trilum, PerkinElmer Wallac, Freiburg, Germany). The percentage displacement of the radioactive ligand from its binding to the human μ opiate receptor is determined at a concentration of the test substances of 1 μmol/l and stated as the percentage inhibition of the specific binding. Starting from the percentage displacement by various concentrations of the test substances, IC50 inhibitory concentrations which cause a 50 percent displacement of the radioactive ligand are calculated. By conversion by means of the Cheng-Prusoff relationship, Ki values for the test substances are obtained.
For `CN(C)C(c1ccc(Cl)cc1)C1CCC2(CC1)c1[nH]c3ccccc3c1CCN2C(=O)COc1ccc(Cl)cc1` (stereo not drawn) [Compound 77, 2-[(4-chlorophenoxy)acetyl]-{1,1-[3-(dimethylamino-(4-chlorophenyl)-methyl)-pentamethylene]-3,4-dihydro-1H-2,9-diazafluorene}], the “μ opioid receptor [1 μmol], % inhibition” value was 17%.
For `CN(C)C(c1ccc(Cl)cc1)C1CCC2(CC1)c1[nH]c3ccccc3c1CCN2C(=O)c1cc2ccccc2s1` (stereo not drawn) [Compound 78, 2-(1-benzothien-2-ylcarbonyl)-{1,1-[3-(dimethylamino-(4-chlorophenyl)-methyl)-pentamethylene]-3,4-dihydro-1H-2,9-diazafluorene}], the “μ opioid receptor [1 μmol], % inhibition” value was 11%.
`CC(=O)N1CCc2c([nH]c3ccccc23)C12CCC(C(c1ccccc1)N(C)C)CC2` (stereo not drawn) [Compound 79, 2-acetyl-{1,1-[3-(dimethylamino-phenylmethyl) -pentamethylene]-3,4-dihydro-1H-2,9-diazafluorene}] was tested, and the “μ opioid receptor [1 μmol], % inhibition” value was 4%.
For `CN(C)C(c1ccccc1)C1CCC2(CC1)c1[nH]c3ccccc3c1CCN2C(=O)C=Cc1ccccc1` (stereo not drawn) [Compound 80, 1-{1,1-[3-(dimethylamino-phenylmethyl)-pentamethylene]-3,4-dihydro-1H-2,9-diazafluoren-2-yl}-3-phenylprop-2-en-1-one], the “μ opioid receptor [1 μmol], % inhibition” value was 41%.
In the case of `COCC(=O)N1CCc2c([nH]c3ccccc23)C12CCC(C(c1ccccc1)N(C)C)CC2` (stereo not drawn) [Compound 81, 2-(methoxyacetyl)-{1,1-[3-(dimethylamino-phenylmethyl) -pentamethylene]-3,4-dihydro-1H-2,9-diazafluorene}], the “μ opioid receptor [1 μmol], % inhibition” value is reported as 0%.
With `CN(C)C(c1ccccc1)C1CCC2(CC1)c1[nH]c3ccccc3c1CCN2C(=O)Cc1cccs1` (stereo not drawn) [Compound 82, 2-(2-thienylacetyl)-{1,1-[3-(dimethylamino-phenylmethyl)-pentamethylene]-3,4-dihydro-1H-2,9-diazafluorene}] the “μ opioid receptor [1 μmol], % inhibition” value was 31%.
In the case of `CN(C)C(c1ccccc1)C1CCC2(CC1)c1[nH]c3ccccc3c1CCN2C(=O)COCc1ccccc1` (stereo not drawn) [Compound 83, 2-(benzyloxyacetyl)-{1,1-[3-(dimethylamino-phenylmethyl) -pentamethylene]-3,4-dihydro-1H-2,9-diazafluorene}], the “μ opioid receptor [1 μmol], % inhibition” value is reported as 50%.
With `CC(=O)N1CCc2c([nH]c3ccccc23)C12CCC(C(c1ccc(F)cc1)N(C)C)CC2` (stereo not drawn) [Compound 84, acetyl-{1,1-[3-(dimethylamino-(4-fluorophenyl)methyl) -pentamethylene]-3,4-dihydro-1H-2,9-diazafluorene}] the “μ opioid receptor [1 μmol], % inhibition” value was 41%.
With `CN(C)C(c1ccc(F)cc1)C1CCC2(CC1)c1[nH]c3ccccc3c1CCN2C(=O)CCC1CCCC1` (stereo not drawn) [Compound 85, 2-(3-cyclopentylpropanoyl)-{1,1-[3-(dimethylamino-(4-fluorophenyl)methyl)-pentamethylene]-3,4-dihydro-1H-2,9-diazafluorene}] the “μ opioid receptor [1 μmol], % inhibition” value was 50%.
`CN(C)C(c1ccc(F)cc1)C1CCC2(CC1)c1[nH]c3ccccc3c1CCN2C(=O)C=Cc1ccccc1` (stereo not drawn) [Compound 86, 1-{1,1-[3-(dimethylamino-(4-fluorophenyl)methyl) -pentamethylene]-3,4-dihydro-1H-2,9-diazafluoren-2-yl}-3-phenylprop-2-en-1-one] was tested, and the “μ opioid receptor [1 μmol], % inhibition” value was 12%.
For `CN(C)C(c1ccc(F)cc1)C1CCC2(CC1)c1[nH]c3ccccc3c1CCN2C(=O)COCc1ccccc1` (stereo not drawn) [Compound 88, 2-(benzyloxyacetyl)-{1,1-[3-(dimethylamino-(4-fluorophenyl)methyl)-pentamethylene]-3,4-dihydro-1H-2,9-diazafluorene}], the “μ opioid receptor [1 μmol], % inhibition” value was 11%.
For `CC(=O)N1CCc2c([nH]c3ccccc23)C12CCC(C(c1cccc(F)c1)N(C)C)CC2` (stereo not drawn) [Compound 89, acetyl-{1,1-[3-(dimethylamino-(3-fluorophenyl)methyl) -pentamethylene]-3,4-dihydro-1H-2,9-diazafluorene}], the “μ opioid receptor [1 μmol], % inhibition” value was 10%.
With `CN(C)C(c1cccc(F)c1)C1CCC2(CC1)c1[nH]c3ccccc3c1CCN2C(=O)C1CC1` (stereo not drawn) [Compound 91, 2-(cyclopropylcarbonyl)-{1,1-[3-(dimethylamino-(3-fluorophenyl)methyl)-pentamethylene]-3,4-dihydro-1H-2,9-diazafluorene}] the “μ opioid receptor [1 μmol], % inhibition” value was 25%.
With `COCC(=O)N1CCc2c([nH]c3ccccc23)C12CCC(C(c1cccc(F)c1)N(C)C)CC2` (stereo not drawn) [Compound 92, 2-(methoxyacetyl)-{1,1-[3-(dimethylamino-(3-fluorophenyl)methyl)-pentamethylene]-3,4-dihydro-1H-2,9-diazafluorene}] the “μ opioid receptor [1 μmol], % inhibition” value was 22%.
With `CN(C)C(c1cccc(F)c1)C1CCC2(CC1)c1[nH]c3ccccc3c1CCN2C(=O)Cc1cccs1` (stereo not drawn) [Compound 93, 2-(2-thienylacetyl)-{1,1-[3-(dimethylamino-(3-fluorophenyl)methyl)-pentamethylene]-3,4-dihydro-1H-2,9-diazafluorene}] the “μ opioid receptor [1 μmol], % inhibition” value was 19%.
In the case of `CN(C)C(c1cccc(F)c1)C1CCC2(CC1)c1[nH]c3ccccc3c1CCN2C(=O)COCc1ccccc1` (stereo not drawn) [Compound 94, 2-(benzyloxyacetyl)-{1,1-[3-(dimethylamino-(3-fluorophenyl)methyl)-pentamethylene]-3,4-dihydro-1H-2,9-diazafluorene}], the “μ opioid receptor [1 μmol], % inhibition” value is reported as 32%.
`CN(C)C(c1ccc(Cl)cc1)C1CCC2(CC1)c1[nH]c3ccccc3c1CCN2C(=O)CCC1CCCC1` (stereo not drawn) [Compound 95, 2-(3-cyclopentylpropanoyl)-{1,1-[3-(dimethylamino-(4-chlorophenyl)-methyl)-pentamethylene]-3,4-dihydro-1H-2,9-diazafluorene}] was tested, and the “μ opioid receptor [1 μmol], % inhibition” value was 18%.
`CN(C)C(c1ccc(Cl)cc1)C1CCC2(CC1)c1[nH]c3ccccc3c1CCN2C(=O)C1CC1` (stereo not drawn) [Compound 96, 2-(cyclopropylcarbonyl)-{1,1-[3-(dimethylamino-(4-chlorophenyl)methyl)-pentamethylene]-3,4-dihydro-1H-2,9-diazafluorene}] was tested, and the “μ opioid receptor [1 μmol], % inhibition” value was 18%.
In the case of `COCC(=O)N1CCc2c([nH]c3ccccc23)C12CCC(C(c1ccc(Cl)cc1)N(C)C)CC2` (stereo not drawn) [Compound 97, 2-(methoxyacetyl)-{1,1-[3-(dimethylamino-(4-chlorophenyl)methyl)-pentamethylene]-3,4-dihydro-1H-2,9-diazafluorene}], the “μ opioid receptor [1 μmol], % inhibition” value is reported as 20%.
For `CN(C)C(c1ccc(Cl)cc1)C1CCC2(CC1)c1[nH]c3ccccc3c1CCN2C(=O)Cc1cccs1` (stereo not drawn) [Compound 98, 2-(2-thienylacetyl)-{1,1-[3-(dimethylamino-(4-chlorophenyl)methyl)-pentamethylene]-3,4-dihydro-1H-2,9-diazafluorene}], the “μ opioid receptor [1 μmol], % inhibition” value was 21%.
`CN(C)C(c1ccc(Cl)cc1)C1CCC2(CC1)c1[nH]c3ccccc3c1CCN2C(=O)COCc1ccccc1` (stereo not drawn) [Compound 99, 2-(benzyloxyacetyl)-{1,1-[3-(dimethylamino-(4-chlorophenyl)methyl)-pentamethylene]-3,4-dihydro-1H-2,9-diazafluorene}] was tested, and the “μ opioid receptor [1 μmol], % inhibition” value was 35%.
`CCCCC(CC)C(=O)N1CCc2c([nH]c3ccccc23)C12CCC(C(c1ccccc1)N(C)C)CC2` (stereo not drawn) [Compound 100, 2-(2-ethylhexanoyl)-{1,1-[3-(dimethylamino-phenylmethyl)-pentamethylene]-3,4-dihydro-1H-2,9-diazafluorene}] was tested, and the “μ opioid receptor [1 μmol], % inhibition” value was 65%.
With `CC(C)C(=O)N1CCc2c([nH]c3ccccc23)C12CCC(C(c1ccccc1)N(C)C)CC2` (stereo not drawn) [Compound 101, 2-isobutyryl-{1,1-[3-(dimethylamino-phenylmethyl) -pentamethylene]-3,4-dihydro-1H-2,9-diazafluorene}] the “μ opioid receptor [1 μmol], % inhibition” value was 74%.
`CCC(=O)N1CCc2c([nH]c3ccccc23)C12CCC(C(c1ccccc1)N(C)C)CC2` (stereo not drawn) [Compound 102, 2-propionyl-{1,1-[3-(dimethylamino-phenylmethyl) -pentamethylene]-3,4-dihydro-1H-2,9-diazafluorene}] was tested, and the “μ opioid receptor [1 μmol], % inhibition” value was 55%.
With `CN(C)C(c1ccccc1)C1CCC2(CC1)c1[nH]c3ccccc3c1CCN2C(=O)c1csc2ccccc12` (stereo not drawn) [Compound 103, 2-(1-benzothien-3-ylcarbonyl)-{1,1-[3-(dimethylamino-phenylmethyl)-pentamethylene]-3,4-dihydro-1H-2,9-diazafluorene}] the “μ opioid receptor [1 μmol], % inhibition” value was 13%.
`CN(C)C(c1ccccc1)C1CCC2(CC1)c1[nH]c3ccccc3c1CCN2C(=O)Cc1ccc(F)cc1` (stereo not drawn) [Compound 104, 2-[(4-fluorophenyl)acetyl]-{1,1-[3-(dimethylamino-phenylmethyl)-pentamethylene]-3,4-dihydro-1H-2,9-diazafluorene}] was tested, and the “μ opioid receptor [1 μmol], % inhibition” value was 39%.
With `CN(C)C(c1ccc(F)cc1)C1CCC2(CC1)c1[nH]c3ccccc3c1CCN2C(=O)C1CCCC1` (stereo not drawn) [Compound 109, 2-cyclopentylcarbonyl-{1,1-[3-(dimethylamino-(4-fluorophenyl)methyl)-pentamethylene]-3,4-dihydro-1H-2,9-diazafluorene}] the “μ opioid receptor [1 μmol], % inhibition” value was 21%.

— patent publication US8124788B2, “Spirocyclic cyclohexane compounds with analgesic activity” (Gruenenthal GmbH, priority 2006, dated 2012)
